Measured values taken from patent publication US20140148443A1, “Novel Imidazolines as dual inhibitors of MDM2 and MDMX” (priority 2012, published 2014).
Counter-ions that a name gives are not always drawn.

How the values were obtained:
[1] = target: recombinant GST-tagged MDM2 (Homo sapiens, UniProt Q00987); assay: HTRF assay of interaction between p53 peptide and GST-tagged MDM2; settings: inhibition of GST-MDM2 (160 ng/ml) binding to biotinylated p53-peptide
Method: The ability of a test compound to inhibit the interaction between p53 and MDM2 protein was measured by an HTRF (homogeneous time-resolved fluorescence) assay in which recombinant GST-tagged MDM2 binds to a peptide that resembles the MDM2-interacting region of p53 Aca-[…]-OH hereinafter p53-peptide). Binding of GST-MDM2 protein and p53-peptide (biotinylated on its N-terminal end) is registered by the FRET (fluorescence resonance energy transfer) between Europium (Eu)-labeled anti-GST antibody and streptavidin-conjugated Allophycocyanin (APC).
The test was performed in black flat-bottom 384-well plates (Costar) in a total volume of 40 uL containing: 90 nM biotinylated peptide, 160 ng/ml GST-MDM2, 20 nM streptavidin-APC (PerkinElmerWallac), 2 nM Eu-labeled anti-GST-antibody (PerkinElmerWallac), 0.02% bovine serum albumin (BSA), 1 mM dithiothreitol (DTT) and 20 mM […] (TBS) buffer as follows: add 10 uL of GST-MDM2 (640 ng/ml working solution) in reaction buffer to each well. Add 10 uL diluted compounds (1:5 dilution in reaction buffer) to each well, mix by shaking. Add 20 uL biotinylated p53 peptide (180 nM working solution) in reaction buffer to each well and mix on shaker. Incubate at 37° C. for 1 h. Add […] streptavidin-APC and Eu-anti-GST antibody mixture (6 nM Eu-anti-GST and 60 nM streptavidin-APC working solution) in TBS buffer with 0.02% BSA, shake at room temperature for 30 minutes and read using a TRF-capable plate reader at 665 and 615 nm (Victor 5, Perkin ElmerWallac). If not specified, the reagents were purchased from Sigma Chemical Co.

GST-tagged MDMX = target: T1, GST-tagged MDMX (Homo sapiens, UniProt O15151); assay: HTRF binding assay of GST-tagged MDMX to p53 peptide
T1 sequence (O15151 1-490): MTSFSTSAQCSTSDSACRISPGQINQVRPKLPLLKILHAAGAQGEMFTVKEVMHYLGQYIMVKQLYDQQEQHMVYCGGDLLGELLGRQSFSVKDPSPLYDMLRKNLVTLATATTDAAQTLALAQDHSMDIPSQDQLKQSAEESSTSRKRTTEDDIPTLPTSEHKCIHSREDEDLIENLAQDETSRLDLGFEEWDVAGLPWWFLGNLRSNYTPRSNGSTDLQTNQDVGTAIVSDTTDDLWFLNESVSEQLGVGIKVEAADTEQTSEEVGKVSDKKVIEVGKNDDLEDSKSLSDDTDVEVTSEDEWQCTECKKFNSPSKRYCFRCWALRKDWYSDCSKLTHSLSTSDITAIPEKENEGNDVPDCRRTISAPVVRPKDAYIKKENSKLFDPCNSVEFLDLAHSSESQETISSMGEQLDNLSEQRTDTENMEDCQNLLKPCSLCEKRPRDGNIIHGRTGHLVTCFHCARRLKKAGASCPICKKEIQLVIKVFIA

Chain of recombinant GST-tagged MDM2 (Q00987 whole entry): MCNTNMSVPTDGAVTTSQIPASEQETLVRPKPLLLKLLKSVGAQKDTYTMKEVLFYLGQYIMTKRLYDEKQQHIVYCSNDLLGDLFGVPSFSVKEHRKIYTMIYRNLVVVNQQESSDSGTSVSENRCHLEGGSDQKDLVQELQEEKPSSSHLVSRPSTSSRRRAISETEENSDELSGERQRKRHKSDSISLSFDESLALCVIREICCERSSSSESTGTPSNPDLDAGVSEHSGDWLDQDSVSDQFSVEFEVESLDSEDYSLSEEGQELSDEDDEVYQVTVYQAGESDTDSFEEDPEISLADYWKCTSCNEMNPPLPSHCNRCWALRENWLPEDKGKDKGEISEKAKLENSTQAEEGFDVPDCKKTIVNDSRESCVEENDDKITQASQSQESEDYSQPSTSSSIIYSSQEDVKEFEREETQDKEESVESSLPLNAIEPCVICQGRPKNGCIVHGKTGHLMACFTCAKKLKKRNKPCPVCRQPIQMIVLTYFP

| Compound | IC50 [1] [µM] | IC50 (GST-tagged MDMX) [µM] |
| --- | --- | --- |
| CCOc1cc(Cl)c(S(C)(=O)=O)cc1C1=N[C@@](C)(c2ccc(Cl)cc2)[C@@](C)(c2ccc(Cl)cc2)N1C(=O)N1CCC(NC(N)=O)CC1 [Example 32, {1-[(4S,5R)-2-(4-Chloro-2-ethoxy-5-methanesulfonyl-phenyl)-4,5-bis-(4-chloro-phenyl)-4,5-dimethyl-4,5-dihydro-imidazole-1-carbonyl]-piperidin-4-yl}-urea] | 0.0052 | 1.46 |
| CCOc1cc(Cl)c(S(C)(=O)=O)cc1C1=N[C@@](C)(c2ccc(Cl)cc2)[C@@](C)(c2ccc(Cl)cc2)N1C(=O)N1CCC(NS(C)(=O)=O)CC1 [Example 33, N-{1-[(4S,5R)-2-(4-Chloro-2-ethoxy-5-methanesulfonyl-phenyl)-4,5-bis-(4-chloro-phenyl)-4,5-dimethyl-4,5-dihydro-imidazole-1-carbonyl]-piperidin-4-yl}-methanesulfonamide] | 0.0053 | 1.12 |
| CCOc1cc(Cl)c(S(C)(=O)=O)cc1C1=N[C@@](C)(c2ccc(Cl)cc2)[C@@](C)(c2ccc(Cl)cc2)N1C(=O)N1CCC(NC(=O)NC2CCS(=O)(=O)C2)CC1 (stereo partly drawn) [Example 34, 1-{1-[(4S,5R)-2-(4-Chloro-2-ethoxy-5-methanesulfonyl-phenyl)-4,5-bis-(4-chloro-phenyl)-4,5-dimethyl-4,5-dihydro-imidazole-1-carbonyl]-piperidin-4-yl}-3-(1,1-dioxo-tetrahydro-1λ6-thiophen-3-yl)-urea] | 0.0063 | 1.35 |
| CCOc1cc(Cl)c(S(C)(=O)=O)cc1C1=N[C@@](C)(c2ccc(Cl)cc2)[C@@](C)(c2ccc(Cl)cc2)N1C(=O)N1CCN(CC(=O)O)CC1 [Example 35, {4-[(4S,5R)-2-(4-Chloro-2-ethoxy-5-methanesulfonyl-phenyl)-4,5-bis-(4-chloro-phenyl)-4,5-dimethyl-4,5-dihydro-imidazole-1-carbonyl]-piperazin-1-yl}-acetic acid, hydrochloride] | 0.0067 | 2.86 |
| CCOc1cc(Cl)c(S(C)(=O)=O)cc1C1=N[C@@](C)(c2ccc(Cl)cc2)[C@@](C)(c2ccc(Cl)cc2)N1C(=O)N1CCC(NC(C)=O)CC1 [Example 36, N-{1-[(4S,5R)-2-(4-Chloro-2-ethoxy-5-methanesulfonyl-phenyl)-4,5-bis-(4-chloro-phenyl)-4,5-dimethyl-4,5-dihydro-imidazole-1-carbonyl]-piperidin-4-yl}-acetamide] | 0.0048 | 1.27 |
| CCOc1cc(Cl)c(S(C)(=O)=O)cc1C1=N[C@@](C)(c2ccc(Cl)cc2)[C@@](C)(c2ccc(Cl)cc2)N1C(=O)N1CCC(N(C)CCCN(C)C)C1 (stereo partly drawn) [Example 37, [(4S,5R)-2-(4-Chloro-2-ethoxy-5-methanesulfonyl-phenyl)-4,5-bis-(4-chloro-phenyl)-4,5-dimethyl-4,5-dihydro-imidazol-1-yl]-{3-[(3-dimethylamino-propyl)-methyl-amino]-pyrrolidin-1-yl}-methanone] | 0.0061 | 3.91 |
| CCOc1cc(Cl)c(S(C)(=O)=O)cc1C1=N[C@@](C)(c2ccc(Cl)cc2)[C@@](C)(c2ccc(Cl)cc2)N1C(=O)N1CCC(O)CC1 [Example 38, [(4S,5R)-2-(4-Chloro-2-ethoxy-5-methanesulfonyl-phenyl)-4,5-bis-(4-chloro-phenyl)-4,5-dimethyl-4,5-dihydro-imidazol-1-yl]-(4-hydroxy-piperidin-1-yl)-methanone] | 0.0084 | 2.89 |
| CCOc1cc(Cl)c(S(C)(=O)=O)cc1C1=N[C@@](C)(c2ccc(Cl)cc2)[C@@](C)(c2ccc(Cl)cc2)N1C(=O)N1CCC(CC(N)=O)CC1 [Example 39, 2-{1-[(4S,5R)-2-(4-Chloro-2-ethoxy-5-methanesulfonyl-phenyl)-4,5-bis-(4-chloro-phenyl)-4,5-dimethyl-4,5-dihydro-imidazole-1-carbonyl]-piperidin-4-yl}-acetamide] | 0.0061 | 1.03 |
| CC(C)Oc1cc(Cl)c(S(C)(=O)=O)cc1C1=N[C@@](C)(c2ccc(Cl)cc2)[C@@](C)(c2ccc(Cl)cc2)N1C(=O)N1CCN(CCCS(C)(=O)=O)CC1 [Example 40, [(4S,5R)-2-(4-Chloro-2-isopropoxy-5-methanesulfonyl-phenyl)-4,5-bis-(4-chloro-phenyl)-4,5-dimethyl-4,5-dihydro-imidazol-1-yl]-[4-(3-methanesulfonyl-propyl)-piperazin-1-yl]-methanone] | 0.0061 | 0.29 |
| CC(C)Oc1cc(Cl)c(S(C)(=O)=O)cc1C1=N[C@@](C)(c2ccc(Cl)cc2)[C@@](C)(c2ccc(Cl)cc2)N1C(=O)N1CCC(CC(N)=O)CC1 [Example 41, 2-{1-[(4S,5R)-2-(4-Chloro-2-isopropoxy-5-methanesulfonyl-phenyl)-4,5-bis-(4-chloro-phenyl)-4,5-dimethyl-4,5-dihydro-imidazole-1-carbonyl]-piperidin-4-yl}-acetamide] | 0.0069 | 0.17 |
| C[C@@]1(c2ccc(Cl)cc2)N=C(c2cc(S(C)(=O)=O)c(Cl)cc2OCC2CC2)N(C(=O)N2CCN(CCCS(C)(=O)=O)CC2)[C@]1(C)c1ccc(Cl)cc1 [Example 42, [(4S,5R)-2-(4-Chloro-2-cyclopropylmethoxy-5-methanesulfonyl-phenyl)-4,5-bis-(4-chloro-phenyl)-4,5-dimethyl-4,5-dihydro-imidazol-1-yl]-[4-(3-methanesulfonyl-propyl)-piperazin-1-yl]-methanone] | 0.0125 | 6.63 |
| C[C@@]1(c2ccc(Cl)cc2)N=C(c2cc(S(C)(=O)=O)c(Cl)cc2OCCF)N(C(=O)N2CCN(CCCS(C)(=O)=O)CC2)[C@]1(C)c1ccc(Cl)cc1 [Example 43, [(4S,5R)-2-[4-Chloro-2-(2-fluoro-ethoxy)-5-methanesulfonyl-phenyl]-4,5-bis-(4-chloro-phenyl)-4,5-dimethyl-4,5-dihydro-imidazol-1-yl]-[4-(3-methanesulfonyl-propyl)-piperazin-1-yl]-methanone] | 0.0097 | 1.38 |
| CCC(C)Oc1cc(Cl)c(S(C)(=O)=O)cc1C1=N[C@@](C)(c2ccc(Cl)cc2)[C@@](C)(c2ccc(Cl)cc2)N1C(=O)N1CCN(CCCS(C)(=O)=O)CC1 (stereo partly drawn) [Example 44, [(4S,5R)-2-(2-sec-Butoxy-4-chloro-5-methanesulfonyl-phenyl)-4,5-bis-(4-chloro-phenyl)-4,5-dimethyl-4,5-dihydro-imidazol-1-yl]-[4-(3-methanesulfonyl-propyl)-piperazin-1-yl]-methanone] | 0.0139 | 1.53 |
| CCOc1cc(Cl)c(S(=O)(=O)NC(C)(C)C)cc1C1=N[C@@](C)(c2ccc(Cl)cc2)[C@@](C)(c2ccc(Cl)cc2)N1C(=O)N1CCN(CCC(O)CO)CC1 (stereo partly drawn) [Example 45, 5-{(4S,5R)-4,5-Bis-(4-chloro-phenyl)-1-[4-(3,4-dihydroxy-butyl)-piperazine-1-carbonyl]-4,5-dimethyl-4,5-dihydro-1H-imidazol-2-yl}-N-tert-butyl-2-chloro-4-ethoxy-benzene sulfonamide] | 0.0129 | 1.13 |
| CCOc1cc(Cl)c(S(=O)(=O)NC(C)(C)C)cc1C1=N[C@@](C)(c2ccc(Cl)cc2)[C@@](C)(c2ccc(Cl)cc2)N1C(=O)N1CCN(CCOCCO)CC1 [Example 46, 5-((4S,5R)-4,5-Bis-(4-chloro-phenyl)-1-{4-[2-(2-hydroxy-ethoxy)-ethyl]-piperazine-1-carbonyl}-4,5-dimethyl-4,5-dihydro-1H-imidazol-2-yl)-N-tert-butyl-2-chloro-4-ethoxy-benzenesulfonamide] | 0.0122 | 1.81 |
| CCOc1cc(Cl)c(S(=O)(=O)NC(C)(C)C)cc1C1=N[C@@](C)(c2ccc(Cl)cc2)[C@@](C)(c2ccc(Cl)cc2)N1C(=O)N1CCN(CC(=O)N2CCN(C)CC2)CC1 [Example 47, 5-((4S,5R)-4,5-Bis-(4-chloro-phenyl)-4,5-dimethyl-1-{4-[2-(4-methyl-piperazin-1-yl)-2-oxo-ethyl]-piperazine-1-carbonyl}-4,5-dihydro-1H-imidazol-2-yl)-N-tert-butyl-2-chloro-4-ethoxy-benzenesulfonamide] | 0.0066 | 1.08 |
